Data taken from PMC4687028 (Journal of medicinal chemistry, 2015).

How the values were obtained:
[1] = molecular target: T1, recombinant human aromatase (CYP19) (Homo sapiens, UniProt P11511); assay: Inhibition of recombinant human aromatase; assay type: biochemical
T1 sequence (P11511 1-503): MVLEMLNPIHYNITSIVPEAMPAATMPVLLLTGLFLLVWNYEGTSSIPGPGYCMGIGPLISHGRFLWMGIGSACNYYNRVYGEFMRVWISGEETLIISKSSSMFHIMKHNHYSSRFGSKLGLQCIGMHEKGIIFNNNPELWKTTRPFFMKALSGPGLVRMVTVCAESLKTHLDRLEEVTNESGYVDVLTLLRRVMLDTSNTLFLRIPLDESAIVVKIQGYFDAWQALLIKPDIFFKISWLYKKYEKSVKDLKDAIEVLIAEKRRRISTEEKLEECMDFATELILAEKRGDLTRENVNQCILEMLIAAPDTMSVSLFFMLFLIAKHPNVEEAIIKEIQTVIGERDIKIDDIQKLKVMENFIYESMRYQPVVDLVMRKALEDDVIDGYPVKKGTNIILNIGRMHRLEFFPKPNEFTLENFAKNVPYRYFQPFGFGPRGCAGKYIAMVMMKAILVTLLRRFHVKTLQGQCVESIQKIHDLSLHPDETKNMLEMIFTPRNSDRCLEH

Recombinant CYP2A6 = molecular target: T2, Recombinant CYP2A6 (Homo sapiens, UniProt P11509); assay: Inhibition of recombinant CYP2A6; assay type: biochemical
T2 sequence (P11509 1-494): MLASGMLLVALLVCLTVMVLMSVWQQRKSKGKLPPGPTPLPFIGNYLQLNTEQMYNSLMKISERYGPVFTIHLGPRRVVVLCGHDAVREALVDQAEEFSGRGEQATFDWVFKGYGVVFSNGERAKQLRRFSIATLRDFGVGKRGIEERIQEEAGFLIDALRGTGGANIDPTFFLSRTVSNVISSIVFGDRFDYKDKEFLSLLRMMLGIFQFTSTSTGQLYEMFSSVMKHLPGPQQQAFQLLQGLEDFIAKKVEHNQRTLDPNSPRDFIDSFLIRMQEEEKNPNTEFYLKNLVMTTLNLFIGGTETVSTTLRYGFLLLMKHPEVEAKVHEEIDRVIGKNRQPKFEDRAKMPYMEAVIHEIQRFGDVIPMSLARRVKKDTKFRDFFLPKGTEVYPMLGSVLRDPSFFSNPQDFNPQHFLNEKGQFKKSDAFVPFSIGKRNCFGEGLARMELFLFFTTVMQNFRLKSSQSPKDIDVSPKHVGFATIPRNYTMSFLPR

recombinant human ER-α = molecular target: T3, recombinant human ER-α (Homo sapiens, UniProt P03372); assay: ER-α competitor binding assay, fluorescence polarization, displacement of ES2; conditions: at the concentration of 100,000 nM
T3 sequence (P03372 1-595): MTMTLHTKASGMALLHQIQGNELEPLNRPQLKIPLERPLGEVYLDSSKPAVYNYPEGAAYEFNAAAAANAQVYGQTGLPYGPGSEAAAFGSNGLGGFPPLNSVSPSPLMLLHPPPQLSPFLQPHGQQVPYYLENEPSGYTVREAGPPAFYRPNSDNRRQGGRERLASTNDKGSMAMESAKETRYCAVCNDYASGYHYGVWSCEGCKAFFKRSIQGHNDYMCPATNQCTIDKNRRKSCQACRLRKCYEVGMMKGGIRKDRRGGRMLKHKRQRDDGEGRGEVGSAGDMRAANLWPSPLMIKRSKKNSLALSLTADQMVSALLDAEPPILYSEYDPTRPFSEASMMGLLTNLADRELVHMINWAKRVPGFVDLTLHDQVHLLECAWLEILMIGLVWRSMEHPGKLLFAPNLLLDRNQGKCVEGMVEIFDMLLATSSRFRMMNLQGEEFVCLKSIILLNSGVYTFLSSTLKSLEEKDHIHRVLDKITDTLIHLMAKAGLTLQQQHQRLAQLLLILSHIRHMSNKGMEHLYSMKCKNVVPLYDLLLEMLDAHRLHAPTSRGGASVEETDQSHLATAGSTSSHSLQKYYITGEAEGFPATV

Recombinant CYP2D6 = Recombinant CYP2D6 (Homo sapiens, UniProt P10635); conditions: previously published; cited from earlier work
Sequence of Recombinant CYP2D6 (P10635 whole entry): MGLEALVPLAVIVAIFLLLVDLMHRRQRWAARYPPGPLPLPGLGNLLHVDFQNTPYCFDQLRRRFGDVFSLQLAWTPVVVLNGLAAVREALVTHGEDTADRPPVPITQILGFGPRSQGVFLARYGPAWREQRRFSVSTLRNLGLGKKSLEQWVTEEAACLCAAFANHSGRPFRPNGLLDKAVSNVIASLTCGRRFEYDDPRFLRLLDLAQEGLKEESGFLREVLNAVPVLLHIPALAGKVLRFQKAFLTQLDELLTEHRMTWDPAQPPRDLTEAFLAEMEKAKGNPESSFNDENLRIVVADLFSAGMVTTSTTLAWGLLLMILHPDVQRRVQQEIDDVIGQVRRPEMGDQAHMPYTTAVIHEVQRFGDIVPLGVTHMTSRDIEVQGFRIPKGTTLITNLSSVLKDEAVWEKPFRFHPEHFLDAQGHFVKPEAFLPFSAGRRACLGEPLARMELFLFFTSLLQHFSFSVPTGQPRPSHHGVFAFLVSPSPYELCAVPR

CC/C(=C(/c1ccc(O)cc1)c1ccc(OCCN)cc1)c1ccc(O)cc1 [Compound 10, 4,4'-(1-(4-(2-Aminoethoxy)phenyl)but-1-ene-1,2-diyl)diphenol]
Potency against aromatase (CYP19) relative to norendoxifen ([1]; Ki 20.0 nM versus Ki […] nM): 4 fold | Selectivity toward CYP19 versus all other CYP P450 enzymes tested ([1]; other than CYP1A2, from Ki values): > 21 fold | IC50 (Recombinant CYP2A6): 6.73 ± 0.66 µM

CC/C(=C(/c1ccccc1)c1ccc(OCCN)cc1)c1ccccc1 [Compound 18, 2-(4-(1,2-Diphenylbut-1-en-1-yl)phenoxy)ethan-1-amine]
Percent ER competition, ER-α (recombinant human ER-α): 0% competition

CC(C)/C(=C(/c1ccc(O)cc1)c1ccc(OCCN)cc1)c1ccccc1 [Compound 29d, 4-(1-(4-(2-Aminoethoxy)phenyl)-3-methyl-2-phenylbut-1-enyl)phenol]
Percent ER competition, ER-α (recombinant human ER-α): 54% competition

N#CC/C(=C(/c1ccc(O)cc1)c1ccc(OCCN)cc1)c1ccccc1 [Compound 40, 4-(4-(2-Aminoethoxy)phenyl)-4-(4-hydroxyphenyl)-3-phenylbut-3-enenitrile]
Percent ER competition, ER-α (recombinant human ER-α): 48% competition

NCCOc1ccc(/C(=C(\Cn2ccnc2)c2ccccc2)c2ccc(O)cc2)cc1 [Compound 41, 4-(1-(4-(2-Aminoethoxy)phenyl)-3-(1H-imidazol-1-yl)-2-phenylprop-1-en-1-yl)phenol]
Percent ER competition, ER-α (recombinant human ER-α): 59% competition

CC/C(=C(/c1ccc(O)cc1)c1ccc(OCCO)cc1)c1ccccc1 [Compound 48, 4-(1-(4-(2-Hydroxyethoxy)phenyl)-2-phenylbut-1-en-1-yl)phenol]
Percent ER competition, ER-α (recombinant human ER-α): 62% competition

CC/C(=C(/c1ccc(O)cc1)c1ccc(OCC(=O)O)cc1)c1ccccc1 [Compound 49, 2-(4-(1-(4-Hydroxyphenyl)-2-phenylbut-1-en-1-yl)phenoxy)acetic Acid]
Percent ER competition, ER-α (recombinant human ER-α): 55% competition

CC/C(=C(/c1ccc(O)cc1)c1ccc(OCCBr)cc1)c1ccccc1 [Compound 50, 4-(1-(4-(2-Bromoethoxy)phenyl)-2-phenylbut-1-en-1-yl)phenol]
Percent ER competition, ER-α (recombinant human ER-α): 60% competition

CC/C(=C(/c1ccc(O)cc1)c1ccc(OCCCl)cc1)c1ccccc1 [Compound 55a, 4-(1-(4-(2-Chloroethoxy)phenyl)-2-phenylbut-1-en-1-yl)phenol]
Percent ER competition, ER-α (recombinant human ER-α): 62% competition

CC/C(=C(/c1ccc(O)cc1)c1ccc(OCCN)cc1)c1ccccc1 [Norendoxifen]
Recombinant CYP2D6 IC50 (nM) (Recombinant CYP2D6): No inhibition | Recombinant CYP2D6 Ki (nM) (Recombinant CYP2D6): No inhibition
